Results from patent US20100016250A1, “TOLL-LIKE RECEPTOR 9 AGONISTS” (KYOWA HAKKO KIRIN CO., LTD., priority 2006, published 2010).

Columns and labels:
NF-κB = assay: Promoting effect on NF-κB promoter-dependent transcriptional activity (luciferase reporter); type: cell-based, human; details: BGERKB5 cells (Namalwa KJM-1 with pIF-luc), 5 hours incubation; FIGS. 2 and 3
Procedure: For the purpose of constructing an evaluation system for determination of NF-κB activity, the following stable transformant cell line was used. NF-κB luciferase reporter plasmid pIF-luc (containing a hygromycin resistant gene expression unit) introduced into cells was prepared by the method described in Japanese Published Unexamined Patent Application No. 169479/00. The plasmid was introduced into a human B-cell line, Namalwa (KJM-1) [Cytotechnology, Vol. 1, p. 151 (1988)], followed by culturing with addition of 0.3 mg/mL hygromycin B to select hygromycin-resistant cells. Among the selected hygromycin-resistant cells, a cell line with which enhancement of luciferase activity by TNF-α (10 ng/mL) stimulation was confirmed (hereinafter referred to as BGERKB5 cells) was used in the following test.
The BGERKB5 cells were suspended in RPMI1640·ITPSG medium having the following composition at a concentration of 1×10^6 cells/mL (hereinafter referred to as the BGERKB5 cell suspension). A test compound was dissolved in phosphate buffer (pH 5) and diluted to a desired concentration with RPMI1640·ITPSG medium to prepare an aqueous solution.
To RPMI1640 medium (Nissui Pharmaceutical Co., Ltd.) were added the following substances at the following concentration or ratio based on the medium (the resulting medium is hereinafter referred to as RPMI1640·ITPSG medium).

[1] = test system: glyceraldehyde-3-phosphate dehydrogenase (GAPDH); details: Mock cells, 50 nmol/L, 5 hours; GAPDH is the internal standard regarded as 1; solvent control = 1
Procedure: (§1) The remaining portion (2.6 mL) of each of the cell suspensions of the four groups used in Test Example 4 was incubated in a 15-mL sterile tube for 5 hours. The cells were collected, and the expression levels of genes of glyceraldehyde-3-phosphoate dehydrogenase (GAPDH), luciferase (NF-κB promoter-derived) (NF-κB-LUC), interleukin 12B (IL12B) and CD80 antigen (CD80) were measured by the quantitative RT-PCR method using SYBR-Green [see Bio Techniques, Vol. 22, p. 130-131, p. 134-138 (1997)].
(§2) That is, the cell suspension of each group remaining in the above test was subjected to the following procedure.
(§3) The cell suspension (1×10^6 cells/mL) of each group (2.6 mL: total cell number 2.6×10^6 cells) was centrifuged using himac CF702 centrifuge (Hitachi Koki Co., Ltd.) at 4° C. at 800 rpm for 10 minutes, and after the supernatant was removed using Pipetman, PBS (2 mL) was added. The obtained cell suspension was further centrifuged using himac CF702 centrifuge (Hitachi Koki Co., Ltd.) at 4° C. at 800 rpm for 10 minutes, and the supernatant was removed using Pipetman to obtain cells.
(§4) Total RNA was extracted from the obtained cells using RNeasy Mini Kit (registered trademark: Qiagen, Inc.) according to the manual attached to the kit. By using the obtained total RNA as a template, cDNA was synthesized in the following manner using Super Script First-strand Synthesis System for RT-PCR (Invitrogen Corp.) according to the manual attached to the kit.
(§5) Ten mmol/L dNTPs mixture solution (1.0 μL) and 0.5 μg/μL oligo(dT)12-18 primer (1.0 μL) were added to the […] (5 μg), and the mixture was diluted with an aqueous solution of diethyl pyrocarbonate (DEPC) to make a total volume of 10.0 μL. The obtained solution was heated at 65° C. for 5 minutes, then rapidly cooled on ice, and allowed to stand for more than one minute for denaturation.

CD80 antigen (CD80) = details: Mock cells, 50 nmol/L, 5 hours; corrected with GAPDH, ratio to solvent control (=1)
Procedure: as §1, §2, §3, §4, §5

interleukin 12B (IL12B) = details: Mock cells, 50 nmol/L, 5 hours; corrected with GAPDH, ratio to solvent control (=1)
Procedure: as §1, §2, §3, §4, §5

[2] = test system: luciferase (NF-κB promoter-derived) (NF-κB-LUC); details: Mock cells, 50 nmol/L, 5 hours; corrected with GAPDH, ratio to solvent control (=1)
Procedure: as §1, §2, §3, §4, §5

IP-10 = details: BGERKB5 cells, 50 nmol/L, 48 hours, culture supernatant
Procedure: Enzyme-linked immunosorbent assay (ELISA) of IP-10 can be carried out in the following manner.
As a control test, a control group without addition of a test compound was also prepared.
Measurement of the amount of IP-10 produced by the BGERKB5 cells was carried out using an immunoassay kit (BioSource International, Inc.). A calibration curve was prepared using the preparation attached to the kit, and the amount of IP-10 in the culture supernatant was measured.

CD40 = details: BGERKB5 cells, 50 nmol/L, 12 hours
Procedure: (§6) Flow cytometry analysis of CD40, CD80, CD86, etc., which are co-stimulating molecules important for the activation of lymphocytes, can be carried out in the following manner.
(§7) The BGERKB5 cell suspension having a concentration of 1.1×10^6 cells/mL obtained in Test Example 1 (90 μL) was put into wells of a 96-well plate containing an aqueous solution of a test compound prepared according to the method described in Test Example 1 (10 μL) (final concentration: 50 nmol/L), followed by incubation in a CO2 incubator at 37° C. for 12 hours (test compound group). As a control test, a control group without addition of a test compound was also prepared.
(§8) The following experiments were carried out at a temperature not more than 4° C. The cells were washed twice with 200 μL of phosphate buffer (PBS) containing 1% bovine serum albumin (Fraction V, Sigma) and 0.05% sodium azide, followed by replacement with the same buffer (100 μL). A phycoerythrin-labeled mouse anti-human CD40 monoclonal antibody solution (BD Biosciences), a phycoerythrin-labeled mouse anti-human CD80 monoclonal antibody solution (BD Biosciences) or a phycoerythrin-labeled mouse anti-human CD86 monoclonal antibody solution (BD Biosciences) (2 μL) was added to the cells, and after stirring, the cells were allowed to stand in the dark for 50 minutes.
(§9) The cells were washed twice with 200 μL of phosphate buffer (PBS) containing 1% bovine serum albumin (Fraction V, Sigma) and 0.05% sodium azide, followed by replacement with the same buffer (500 μL).
(§10) The cell count was determined using EPICS XL-MCL (Beckman Coulter, Inc., excitation wavelength 488 nm, argon laser) as a flow cytometer and a positive cell ratio was calculated. As a measurement software, System 2 version 3.0 (Beckman Coulter, Inc.) was used.

CD86 = details: BGERKB5 cells, 50 nmol/L, 12 hours
Procedure: as §6, §7, §8, §9, §10

CD80 = details: BGERKB5 cells, 50 nmol/L, 12 hours
Procedure: as §6, §7, §8, §9, §10

TLR9 = TLR9 (Homo sapiens, UniProt Q9NR96); details: BGERKB5 cells without siRNA (Mock), 50 nmol/L, 5 hours
Chain of TLR9 (Q9NR96 26-1032): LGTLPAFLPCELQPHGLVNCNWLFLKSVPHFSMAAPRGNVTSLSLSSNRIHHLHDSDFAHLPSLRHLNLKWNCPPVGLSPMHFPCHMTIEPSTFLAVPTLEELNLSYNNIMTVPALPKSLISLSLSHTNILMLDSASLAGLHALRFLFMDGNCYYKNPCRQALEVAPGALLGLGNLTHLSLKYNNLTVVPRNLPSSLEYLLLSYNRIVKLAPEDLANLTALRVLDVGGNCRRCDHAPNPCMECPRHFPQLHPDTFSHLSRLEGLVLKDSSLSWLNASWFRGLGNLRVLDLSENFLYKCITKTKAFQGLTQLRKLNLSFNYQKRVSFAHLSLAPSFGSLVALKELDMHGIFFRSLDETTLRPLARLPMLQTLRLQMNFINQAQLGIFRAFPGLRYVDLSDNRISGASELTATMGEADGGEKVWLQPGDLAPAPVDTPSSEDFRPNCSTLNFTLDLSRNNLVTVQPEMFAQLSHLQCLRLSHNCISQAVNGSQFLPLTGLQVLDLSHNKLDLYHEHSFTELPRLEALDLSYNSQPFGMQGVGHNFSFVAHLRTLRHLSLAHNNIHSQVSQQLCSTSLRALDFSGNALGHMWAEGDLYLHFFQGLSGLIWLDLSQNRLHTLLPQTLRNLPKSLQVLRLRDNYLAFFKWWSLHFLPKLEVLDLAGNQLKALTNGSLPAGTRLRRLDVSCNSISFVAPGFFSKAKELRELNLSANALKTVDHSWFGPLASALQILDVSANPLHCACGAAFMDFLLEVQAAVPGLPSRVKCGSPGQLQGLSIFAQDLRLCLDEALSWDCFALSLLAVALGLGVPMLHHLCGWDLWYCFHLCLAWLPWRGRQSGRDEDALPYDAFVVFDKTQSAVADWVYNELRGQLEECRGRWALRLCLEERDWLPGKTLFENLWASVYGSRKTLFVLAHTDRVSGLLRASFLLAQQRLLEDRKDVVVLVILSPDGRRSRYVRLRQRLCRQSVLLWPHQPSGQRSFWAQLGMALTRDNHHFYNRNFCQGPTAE
Procedure: A knockdown test of TLR9 using siRNA in BGERKB5 cells can be carried out in the following manner.
A BGERKB5 cell suspension (0.5 mL) having a concentration of 4×10^5 cells/mL obtained according to the method described in Test Example 1 was seeded into 6 wells of a 24-well plate (total cell number: 1.2×10^6 cells), followed by incubation in a CO2 incubator at 37° C. for 24 hours.
Then, siRNA against TLR9 (Ambion, Inc., pre-designed siRNA, ID#6055, Cat. 16704, Lot. 047951si) was introduced in an amount of 100 pmol per well using lipofectamine 2000 (Invitrogen Corp.).
Twenty-four hours after the siRNA introduction, the medium was replaced with a fresh one, followed by further incubation for 48 hours. The obtained cells were collected in a sterile tube and suspended in RPMI1640·ITPSG medium at a concentration of 1×10^6 cells/mL (TLR9 kd group). “Mock group” containing no siRNA was prepared in the same manner as in the preparation of “TLR9 kd group”. […]
A 400-μL portion from each of the cell suspensions of the four groups (3 mL) was seeded in quadruplicate 100 μL aliquots into a 96-well plate, followed by incubation for 5 hours. Steady-Glo (Promega Corp.) (100 μL) was added and the luciferase activity (RLU) in each well was measured using Multilabel Counter ARVO (Perkin-Elmer Corp.).

Compound: CC(=O)OCCC1OC(OP(=O)(O)OP(=O)(O)OCC2OC(n3cnc4c(N)ncnc43)C(O)C2O)C(OC(C)=O)C(OC(C)=O)C1OC(C)=O [Compound 1, Adenosine=5′-(2,3,4,7-tetra-O-acetyl-6-deoxy-β-D-mannoheptopyranosyl)diphosphate]
- luciferase activity (RLU), activating effect on NF-κB (NF-κB): enhancement of luciferase activity was confirmed

Compound: Nc1ncnc2c1ncn2C1OC(COP(=O)(O)OP(=O)(O)OC2OC(CCO)C(O)C(O)C2O)C(O)C1O [Compound 2, Adenosine=5′-(6-deoxy-β-D-mannoheptopyranosyl)diphosphate]
- luciferase activity (RLU), activating effect on NF-κB (NF-κB): enhancement of luciferase activity was confirmed

Compound: CC(=O)OCC(OC(C)=O)C1OC(OP(=O)(O)OP(=O)(O)OCC2OC(n3cnc4c(N)ncnc43)C(O)C2O)C(OC(C)=O)C(OC(C)=O)C1OC(C)=O [Compound 10, Adenosine=5′-(2,3,4,6,7-penta-O-acetyl-L-glycero-β-D-mannoheptopyranosyl)diphosphate]
- luciferase activity (RLU), activating effect on NF-κB (NF-κB): enhancement of luciferase activity was confirmed

Compound: Nc1ncnc2c1ncn2[C@@H]1O[C@H](COP(=O)(O)OP(=O)(O)O[C@@H]2OC([C@@H](O)CO)[C@@H](O)C(O)C2O)C(O)C1O (stereo partly drawn) [Compound 12, Adenosine=5′-(L-glycero-β-D-mannopyranosyl)diphosphate]
- luciferase activity (RLU), activating effect on NF-κB (NF-κB): enhancement of luciferase activity was confirmed

Compound: CC(=O)OC[C@@H](OC(C)=O)[C@H]1O[C@@H](OP(=O)(O)OP(=O)(O)OC[C@H]2O[C@@H](n3cnc4c(N)ncnc43)[C@H](O)[C@@H]2O)[C@@H](OC(C)=O)[C@@H](OC(C)=O)[C@@H]1OC(C)=O [Compound 14, Adenosine=5′-(2,3,4,6,7-penta-O-acetyl-D-glycero-β-D-mannoheptopyranosyl)diphosphate]
- luciferase activity (RLU), activating effect on NF-κB (NF-κB): enhancement of luciferase activity was confirmed

Compound: Nc1ncnc2c1ncn2[C@@H]1O[C@H](COP(=O)(O)OP(=O)(O)O[C@@H]2O[C@H]([C@H](O)CO)[C@@H](O)[C@H](O)[C@@H]2O)[C@@H](O)[C@H]1O [Compound 16, Adenosine=5′-(D-glycero-β-D-mannoheptopyranosyl)diphosphate]
- relative mRNA expression level, GAPDH, Mock [1]: 1.0
- relative mRNA expression level, CD80, Mock (CD80 antigen (CD80)): 127
- relative mRNA expression level, IL12B, Mock (interleukin 12B (IL12B)): 1.4
- relative mRNA expression level, NF-κB-LUC, Mock [2]: 59.7
- luciferase activity (RLU), activating effect on NF-κB (NF-κB): enhancement of luciferase activity was confirmed
- amount of IP-10 produced (IP-10): 1441 pg/mL
- Positive cell ratio (%) CD40 (CD40): 93.6%
- Positive cell ratio (%) CD86 (CD86): 78.4%
- Positive cell ratio (%) CD80 (CD80): 45.7%
- Luciferase activity (RLU) (mean ± standard error), Mock (TLR9): 7196.7 ± 88.8 RLU

Compound: Adenosine=5′-(6-deoxy-β-D-mannoheptopyranosyl)-α, β-methylene diphosphate [Compound 30]
- luciferase activity (RLU), activating effect on NF-κB (NF-κB): enhancement of luciferase activity was confirmed
- amount of IP-10 produced (IP-10): 821 pg/mL
